Experimental data from US11628198B2, “Methods for prevention and treatment of acute renal injury” (Cornell University, priority 2008, dated 2023).

Key:
Type in all cases: in vivo, rat
[1] = test system: CIN in glycerol-induced rhabdomyolysis animal model; assay: CIN in glycerol-induced rhabdomyolysis model, Experiment 2
Procedure: SD rats with body weight of 300-400 grams were dehydrated for 24 h followed by i.m. injection with 25% glycerol solution (v/v) at the dose of 10 ml/kg. Twenty-four hours later, the rats were grouped and subjected to contrast induced nephropathy study protocol. Sixteen SD rats with body weight of 300-350 g were randomized into three groups with the doses, dosing schedules and study protocol presented in FIG. 23. The effects of SS-31 on ARI can be examined by comparing the renal functions in animals from group A with that from group B. Samples were analyzed by Student's t-test and differences were considered significant at p<0.05.
(§1) Renal function: Renal function was assessed by determining serum and urinary creatinine using Jiancheng Cr kit (Nanjing, P.R.C) at baseline, 24 h after dehydration and 48 h post the contrast dye administration. The creatinine clearance was calculated based on the Scr, Ucr and urinary volume. Urinary protein concentration was determined by Bradford Protein Assay kit (Sigma, St. Louis, Mo.).

[2] = test system: CIN in glycerol-induced rhabdomyolysis animal model; assay: CIN in glycerol-induced rhabdomyolysis model, Experiment 1
Procedure: In this model, SD rats with body weight of 300-400 g were dehydrated for 24 h followed by i.m. injection of 25% glycerol solution (v/v) at the dose of 10 ml/kg. Twenty-four hours (24 h) later, the rats were grouped and subjected to a contrast induced nephropathy study protocol as detailed in FIG. 20. The effects of SS-31 on ARI can be examined by comparing the renal functions in animals from group C with those from group B. Samples were analyzed by students t-test and differences were considered significant at p<0.05.
as §1, with “microalbumin” for “protein”, “a competition ELISA assay.” for “Bradford Protein Assay kit (Sigma, St. Louis, Mo.).”

[3] = test system: radiocontrast dye-induced renal failure; assay: CIN, indomethacin/L-NAME/iothalamate model, Experiment 1
Procedure: Animal Model: A model of radiocontrast dye-induced renal failure as described by Agmon et al. J Clin Invest 94:1069-1075 (1994) in this Example. As in humans, radiocontrast dye is generally non-toxic when administered to animals with normal renal function. However, radiocontrast dye can induce ARI in animals with impaired renal function. In this model, impaired renal function was induced by the administration of indomethacin (10 mg/kg) and L-NAME (10 mg/kg). The animals were divided into 3 groups: • 1. Group (1) control (n=8) • 2. Group (2) Indomethcin/L-NAME (given 15 min apart) followed by iothalamate (AngioConray 6 ml/kg) (n=7) • 3. Group (3) SS-31 (3 mg/kg, ip) was given 15 min prior to administration of indomethacin/L-NAME/iothalamate, and a second dose of SS-31 (3 mg/kg) was repeated immediately after drug exposure (n=9)
Experimental Protocol: Rats were kept in metabolic cages (Nalge Co., Rochester, N.Y.) with free access to tap water and standard rat chow. After a baseline 24-h urinary collection, the rats were anesthetized with a mixture of ketamine (90 mg/kg, i.p.) and xylazine (4 mg/kg, i.p.). The left femoral vein and artery were cannulated and a baseline blood sample drawn (1 ml) for measurement of creatinine level. The animals then received the various drug treatments as indicated above. Iothalamate Meglumine 60% (contrast dye; AngioConray 6 ml/kg) was then injected through the arterial cannula. The left femoral artery was then ligated and the cannula removed. Rats were then returned to the metabolic cages for another 24-h urine collection. […]
Renal Function: Renal function was assessed by determining GFR at baseline and 24 h following dye administration. […] Creatinine clearance was analyzed by measuring plasma (Pcr), urinary creatinine (Ucr) levels (Bioassay Systems; DICT-500) and urine volume.
Renal Histology: Kidneys were fixed in 10% neutral-buffered formalin and embedded in paraffin wax. Three micron sections were stained with hematoxylin-eosin (H&E) and periodic acid-Schiff (PAS) and analyzed by light microscopy by a board certified pathologist.

[4] = test system: ARI caused by ischemia-reperfusion (I/R); assay: I/R model: TUNEL assay for apoptosis; conditions: 30 min ischemia and 24 h reperfusion; 3 mg/kg
Procedure: Sprague Dawley rats (250˜300 g) were assigned to four groups: (1) sham surgery group without I/R; (2) I/R+saline vehicle treatment; (3) I/R+SS-20 treatment; (4) I/R+SS-31 treatment. Each experimental group consisted of 8 rats. SS-20 and SS-31 (3 mg/kg, dissolved in saline) were administered to rats 30 min before ischemia and immediately before onset of reperfusion. The control rats were given saline alone on the same schedule.
Rats were anesthetized with a mixture of ketamine (90 mg/kg, i.p.) and xylazine (4 mg/kg, i.p.). The left renal vascular pedicle was occluded temporarily using a micro-clamp for 30 or 45 min. At the end of the ischemic period, reperfusion was established by removing of the clamp. At that time, the contralateral right kidney was removed. After 24 h reperfusion, animals were sacrificed and blood samples were obtained by cardiac puncture. Renal function was determined by blood urea nitrogen (BUN) and serum creatinine (BioAssay Systems DIUR-500 and DICT-500).
TUNEL Assay for Apoptosis: Renal tissue sections were deparaffinized and rehydrated by xylenes, graded alcohol series and deionized H2O, and then incubated in 20 μg/ml proteinase K for 20 min at RT. In situ cell death detection POD kit (Roche, IN, USA) was used according to the manufacturer's instructions. […]

With D-Arg-2′6′Dmt-Lys-Phe-NH2 [SS-31] the “reduction of creatinine clearance” value ([1]; 48 h post dye) was 13%, the “24 h urinary protein level” value ([1]; T0 (24 h post glycerin), no peptide yet) was 50.2 ± 8.6 mg and the “24 h urinary protein level” value ([1]; T1 (48 h post glycerin and 24 hrs post dye)) was 39.5 ± 3.5 mg. For the same substance, the “24 h urinary protein level” value ([1]; Tb (baseline), no peptide yet) was 15.5 ± 1.5 mg, the “PAS staining of kidney” value ([1]; glycerin, dye) was “intact brush borders, normal glomeruli and minimum protein cast in the tubular cells” and the urinary microalbumin level ([2]; T0, after 24 h dehydration, no peptide treatment at this time point) was 757.7±462.9 μg/24 h. The total albuminuria ([2]; T2, compared to the vehicle treated group) was “decreased significantly”, the “PAS staining of kidney” value ([2]; glycerin, dye) was “intact brush borders, normal glomeruli and minimum protein cast in the tubular cells” and the “rats almost completely protected from the effects of the dye” value ([3]; 3 mg/kg ip before and after drug exposure) was “Six of nine”. For the same substance, the “PAS staining of kidney” value ([3]; dye-injected) was “intact brush borders and normal glomeruli”, the “apoptotic cells/hpf (TUNEL)” value ([3]; dye-injected) was “greatly attenuated” and the “TUNEL-positive cells in the medulla (tubular cell apoptosis)” value [4] was “significantly prevented TUNEL-positive cells”.
